According to PMC3781954 (Archives of biochemistry and biophysics, 2013):
One block for each compound: values may come before it.

How the values were obtained:
[1] = target: T1, Rabbit CYP2E1 (Oryctolagus cuniculus, UniProt P08682); assay: Inhibition of 4-nitrophenol oxidation to 4-nitrocatechol by reconstituted CYP2E1; settings: for fold more potent than pyrazole: inhibition of CYP2E1 4-nitrophenol metabolism; for Inhibition Mechanism: most probable mechanism by DynaFit model discrimination, substrate 4-nitrophenol; for kcat2: turnover of the ESI complex, 95% confidence intervals in parentheses
[2] = target: T1, Rabbit CYP2E1; assay: Spectral binding studies; settings: for fold increase in affinity (Kd) relative to pyrazole: catalytic site
[3] = target: CYP2E1 (Oryctolagus cuniculus, UniProt P08682); assay: Spectral binding studies; parameters: species or system rabbit; settings: rabbit, pH 7.4
[4] = tested on: CYP2E1; settings: positive cooperativity; ref [4], [6]; cited from earlier work

T1 sequence (P08682 whole entry): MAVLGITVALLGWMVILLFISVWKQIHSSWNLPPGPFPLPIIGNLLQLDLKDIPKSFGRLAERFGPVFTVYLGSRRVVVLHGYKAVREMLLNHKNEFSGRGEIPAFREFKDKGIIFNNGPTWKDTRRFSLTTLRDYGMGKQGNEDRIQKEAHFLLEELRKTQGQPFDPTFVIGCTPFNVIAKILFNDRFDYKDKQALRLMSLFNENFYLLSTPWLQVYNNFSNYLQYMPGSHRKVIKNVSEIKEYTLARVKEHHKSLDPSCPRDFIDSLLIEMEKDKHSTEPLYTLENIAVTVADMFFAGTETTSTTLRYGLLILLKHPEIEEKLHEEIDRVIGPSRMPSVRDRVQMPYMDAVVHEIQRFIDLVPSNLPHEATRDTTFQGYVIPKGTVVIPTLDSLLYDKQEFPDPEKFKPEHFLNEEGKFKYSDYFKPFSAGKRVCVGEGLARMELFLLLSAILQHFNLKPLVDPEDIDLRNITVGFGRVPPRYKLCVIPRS
CYP2E1 (Oryctolagus cuniculus, UniProt P08682), sequence (P08682 whole entry): as above

Compound: Cc1cc[nH]n1 [3-methylpyrazole]
fold higher affinity for the free enzyme than the ES complex [1]: two-fold | Inhibition Mechanism [1]: Mixed, coop. substrate | kcat2 [1]: 8.7 (7.0 to 10) min^−1 | Kd [3]: 1700 µM | Kd [2]: 11 µM | fold increase in affinity (Kd) relative to pyrazole ([2]; spectral binding): 2 fold

Compound: c1ccc(-c2cc[nH]n2)cc1 [3-phenylpyrazole]
Inhibition Mechanism [1]: Competitive | Kd [2]: 22 µM

Compound: CCOc1ccc2ccc(=O)oc2c1 [7-ethoxycoumarin]
Hill coefficient [4]: 1.6

Compound: c1ccc2[nH]ncc2c1 [indazole]
fold more potent than pyrazole [1]: more than 200 fold | Inhibition Mechanism [1]: Mixed, coop. substrate | kcat2 [1]: 11 (9.0 to 13) min^−1 | fold increase in affinity relative to tetrahydroindazole ([2]; spectral binding, aromatization of the second ring): about five-fold

Compound: Cc1cccc(C)c1 [m-xylene]
Hill coefficient [4]: 1.4

Compound: c1cn[nH]c1 [pyrazole]
Inhibition Mechanism [1]: Mixed, coop. substrate

The remaining lines, values ahead:

fold more potent than pyrazole [1]: 100 fold | Inhibition Mechanism [1]: Mixed, coop. substrate | kcat2 [1]: 6.6 (2.3 to 9.6) min^−1 | fold increase in affinity (Kd) relative to pyrazole ([2]; spectral binding): 800 fold
Compound: c1n[nH]c2c1CCCC2

inhibition of the 4-nitrophenol reaction ([1]; concentration as high as 250 µM (data not shown)): no inhibition | spectral shift upon binding ([2]; concentrations as high as 1000 µM): did not induce a spectral
Compound: Cc1cc(C)[nH]n1 [3,5-dimethylpyrazole]

Kd [2]: 550 µM
Compound: c1ccc2[nH]cnc2c1 [benzimidazole]
